“And” between values parts separate entries of the source, which are not always exact repeats. Equal values may be shown once.
Tests used:
[1] = Molar enthalpy of transition or fusion
[2] = for Normal melting temperature: Crystal 1; for Triple point temperature: Crystal 2
[3] = molar heat capacity at constant pressure; details: 101.33 kPa

CC(C)(CO)CO [2,2-dimethyl-1,3-propanediol]
[1]
Details | Molar enthalpy of transition or fusion [kcal/mol]
Crystal 1 | 1.01
Crystal 2 | 2.92

[2]
Details | Normal melting temperature [°C] | Triple point temperature [K]
– | 128.48 | 315.14

[3]
Details | molar heat capacity at constant pressure
193.15 K, Crystal 2 | 120.71 J/K/mol and 121.44 J/K/mol
198.15 K, Crystal 2 | 122.48 J/K/mol and 123 J/K/mol
203.15 K, Crystal 2 | 124.15 J/K/mol and 124.36 J/K/mol
208.15 K, Crystal 2 | 123.83 J/K/mol and 125.5 J/K/mol
213.15 K, Crystal 2 | 125.6 J/K/mol and 127.58 J/K/mol
218.15 K, Crystal 2 | 127.48 J/K/mol and 130.08 J/K/mol
223.15 K, Crystal 2 | 130.08 J/K/mol and 132.06 J/K/mol
228.15 K, Crystal 2 | 132.79 J/K/mol and 133.62 J/K/mol
233.15 K, Crystal 2 | 134.98 J/K/mol and 134.87 J/K/mol
238.15 K, Crystal 2 | 135.71 J/K/mol and 136.54 J/K/mol
243.15 K, Crystal 2 | 136.64 J/K/mol and 138.1 J/K/mol
248.15 K, Crystal 2 | 136.64 J/K/mol and 140.5 J/K/mol
253.15 K, Crystal 2 | 138 J/K/mol and 142.37 J/K/mol
258.15 K, Crystal 2 | 139.46 J/K/mol and 144.66 J/K/mol
263.15 K, Crystal 2 | 141.23 J/K/mol and 147.79 J/K/mol
268.15 K, Crystal 2 | 142.89 J/K/mol and 150.6 J/K/mol
273.15 K, Crystal 2 | 145.29 J/K/mol and 153.62 J/K/mol
278.15 K, Crystal 2 | 156.54 J/K/mol and 147.48 J/K/mol
283.15 K, Crystal 2 | 160.08 J/K/mol and 150.18 J/K/mol
288.15 K, Crystal 2 | 164.45 J/K/mol and 153.31 J/K/mol
293.15 K, Crystal 2 | 168.1 J/K/mol and 156.12 J/K/mol
298.15 K, Crystal 2 | 172.06 J/K/mol and 159.25 J/K/mol
303.15 K, Crystal 2 | 176.53 J/K/mol and 163.1 J/K/mol
308.15 K, Crystal 2 | 184.35 J/K/mol and 167.58 J/K/mol
323.15 K, Crystal 1 | 260.17 J/K/mol and 244.86 J/K/mol
328.15 K, Crystal 1 | 268.5 J/K/mol and 247.56 J/K/mol
333.15 K, Crystal 1 | 250.27 J/K/mol and 274.54 J/K/mol
338.15 K, Crystal 1 | 252.15 J/K/mol and 278.81 J/K/mol
343.15 K, Crystal 1 | 254.75 J/K/mol and 282.45 J/K/mol
348.15 K, Crystal 1 | 256.52 J/K/mol and 286.2 J/K/mol
353.15 K, Crystal 1 | 258.71 J/K/mol and 288.81 J/K/mol
358.15 K, Crystal 1 | 260.79 J/K/mol and 291.2 J/K/mol
363.15 K, Crystal 1 | 263.19 J/K/mol and 294.22 J/K/mol
368.15 K, Crystal 1 | 265.69 J/K/mol and 296.93 J/K/mol
373.15 K, Crystal 1 | 268.39 J/K/mol and 299.85 J/K/mol
378.15 K, Crystal 1 | 272.04 J/K/mol and 303.6 J/K/mol
383.15 K, Crystal 1 | 277.04 J/K/mol and 309.64 J/K/mol
388.15 K, Crystal 1 | 285.06 J/K/mol and 322.55 J/K/mol
393.15 K, Crystal 1 | 309.85 J/K/mol and 358.48 J/K/mol
408.15 K, Liquid | 330.26 J/K/mol
413.15 K, Liquid | 339.95 J/K/mol
418.15 K, Liquid | 345.99 J/K/mol
423.15 K, Liquid | 353.38 J/K/mol

NC(CO)(CO)CO [2-amino-2-(hydroxymethyl)-1,3-propanediol]
[1]
Details | Molar enthalpy of transition or fusion [kcal/mol]
Crystal 1 | 0.742
Crystal 2 | 8

[2]
Details | Normal melting temperature [°C] | Triple point temperature [K]
– | 171.42 | 409.2

[3]
Details | molar heat capacity at constant pressure
193.15 K, Crystal 2 | 122.47 J/K/mol and 125.13 J/K/mol and 118.14 J/K/mol
198.15 K, Crystal 2 | 123.8 J/K/mol and 126.58 J/K/mol and 119.34 J/K/mol
203.15 K, Crystal 2 | 124.41 J/K/mol and 128.03 J/K/mol and 119.97 J/K/mol
208.15 K, Crystal 2 | 130.34 J/K/mol and 121.62 J/K/mol and 126.22 J/K/mol
213.15 K, Crystal 2 | 128.53 J/K/mol and 132.76 J/K/mol and 124.17 J/K/mol
218.15 K, Crystal 2 | 130.83 J/K/mol and 135.3 J/K/mol and 125.62 J/K/mol
223.15 K, Crystal 2 | 133.13 J/K/mol and 137.12 J/K/mol and 127.31 J/K/mol
228.15 K, Crystal 2 | 135.31 J/K/mol and 138.33 J/K/mol and 129.5 J/K/mol
233.15 K, Crystal 2 | 131.07 J/K/mol and 137.49 J/K/mol and 140.87 J/K/mol
238.15 K, Crystal 2 | 133.61 J/K/mol and 139.67 J/K/mol and 143.78 J/K/mol
243.15 K, Crystal 2 | 139.07 J/K/mol and 142.09 J/K/mol and 145.84 J/K/mol
248.15 K, Crystal 2 | 143.18 J/K/mol and 144.27 J/K/mol and 148.75 J/K/mol
253.15 K, Crystal 2 | 144.76 J/K/mol and 146.7 J/K/mol and 151.05 J/K/mol
258.15 K, Crystal 2 | 146.82 J/K/mol and 149.24 J/K/mol and 153.23 J/K/mol
263.15 K, Crystal 2 | 150.82 J/K/mol and 152.03 J/K/mol and 155.65 J/K/mol
268.15 K, Crystal 2 | 154.81 J/K/mol and 154.69 J/K/mol and 158.07 J/K/mol
273.15 K, Crystal 2 | 156.87 J/K/mol and 156.99 J/K/mol and 160.74 J/K/mol
278.15 K, Crystal 2 | 157.96 J/K/mol and 159.66 J/K/mol and 163.65 J/K/mol
283.15 K, Crystal 2 | 160.99 J/K/mol and 162.69 J/K/mol and 166.8 J/K/mol
288.15 K, Crystal 2 | 163.78 J/K/mol and 165.84 J/K/mol and 169.46 J/K/mol
293.15 K, Crystal 2 | 166.32 J/K/mol and 169.11 J/K/mol and 171.4 J/K/mol
298.15 K, Crystal 2 | 169.83 J/K/mol and 171.89 J/K/mol and 174.79 J/K/mol
303.15 K, Crystal 2 | 172.14 J/K/mol and 174.44 J/K/mol and 179.03 J/K/mol
308.15 K, Crystal 2 | 173.95 J/K/mol and 177.34 J/K/mol and 182.3 J/K/mol
313.15 K, Crystal 2 | 175.89 J/K/mol and 180.01 J/K/mol and 185.33 J/K/mol
318.15 K, Crystal 2 | 180.37 J/K/mol and 182.55 J/K/mol and 188.36 J/K/mol
323.15 K, Crystal 2 | 185.82 J/K/mol and 185.1 J/K/mol and 191.63 J/K/mol
328.15 K, Crystal 2 | 189.46 J/K/mol and 187.4 J/K/mol and 194.41 J/K/mol
333.15 K, Crystal 2 | 192 J/K/mol and 189.82 J/K/mol and 197.08 J/K/mol
338.15 K, Crystal 2 | 195.52 J/K/mol and 192.24 J/K/mol and 200.35 J/K/mol
343.15 K, Crystal 2 | 198.06 J/K/mol and 194.3 J/K/mol and 203.14 J/K/mol
348.15 K, Crystal 2 | 200.6 J/K/mol and 196.97 J/K/mol and 206.04 J/K/mol
353.15 K, Crystal 2 | 203.15 J/K/mol and 199.15 J/K/mol and 209.19 J/K/mol
358.15 K, Crystal 2 | 201.94 J/K/mol and 211.86 J/K/mol and 205.93 J/K/mol
363.15 K, Crystal 2 | 209.93 J/K/mol and 203.99 J/K/mol and 214.4 J/K/mol
368.15 K, Crystal 2 | 212.96 J/K/mol and 206.78 J/K/mol and 217.31 J/K/mol
373.15 K, Crystal 2 | 215.26 J/K/mol and 209.45 J/K/mol and 219.61 J/K/mol
378.15 K, Crystal 2 | 218.17 J/K/mol and 212.35 J/K/mol and 222.64 J/K/mol
383.15 K, Crystal 2 | 221.8 J/K/mol and 214.9 J/K/mol and 226.15 J/K/mol
388.15 K, Crystal 2 | 227.37 J/K/mol and 217.93 J/K/mol and 229.78 J/K/mol
393.15 K, Crystal 2 | 229.31 J/K/mol and 221.32 J/K/mol and 233.54 J/K/mol
398.15 K, Crystal 2 | 234.28 J/K/mol and 225.68 J/K/mol and 237.9 J/K/mol
423.15 K, Crystal 1 | 367.05 J/K/mol and 386.4 J/K/mol and 376.37 J/K/mol
428.15 K, Crystal 1 | 368.14 J/K/mol and 390.4 J/K/mol and 378.19 J/K/mol
433.15 K, Crystal 1 | 369.95 J/K/mol and 393.79 J/K/mol and 383.04 J/K/mol
438.15 K, Crystal 1 | 396.7 J/K/mol and 389.58 J/K/mol and 371.65 J/K/mol
453.15 K, Liquid | 395.39 J/K/mol
458.15 K, Liquid | 396.6 J/K/mol
463.15 K, Liquid | 398.06 J/K/mol
468.15 K, Liquid | 400.36 J/K/mol
473.15 K, Liquid | 400.72 J/K/mol

CC(N)(CO)CO [2-amino-2-methyl-1,3-propanediol]
[1]
Details | Molar enthalpy of transition or fusion [kcal/mol]
Crystal 1 | 0.658
Crystal 2 | 5.63

[2]
Details | Normal melting temperature [°C] | Triple point temperature [K]
– | 110.93 | 355.66

[3]
Details | molar heat capacity at constant pressure
193.15 K, Crystal 3 | 118.91 J/K/mol and 107.45 J/K/mol and 121.86 J/K/mol
198.15 K, Crystal 3 | 121.86 J/K/mol and 119.23 J/K/mol and 108.93 J/K/mol
203.15 K, Crystal 3 | 123.22 J/K/mol and 119.86 J/K/mol and 110.29 J/K/mol
208.15 K, Crystal 3 | 119.54 J/K/mol and 111.13 J/K/mol and 124.91 J/K/mol
213.15 K, Crystal 3 | 126.27 J/K/mol and 119.96 J/K/mol and 112.18 J/K/mol
218.15 K, Crystal 3 | 127.85 J/K/mol and 121.12 J/K/mol and 113.66 J/K/mol
223.15 K, Crystal 3 | 129.11 J/K/mol and 122.28 J/K/mol and 115.97 J/K/mol
228.15 K, Crystal 3 | 130.37 J/K/mol and 123.22 J/K/mol and 118.39 J/K/mol
233.15 K, Crystal 3 | 132.06 J/K/mol and 124.17 J/K/mol and 121.02 J/K/mol
238.15 K, Crystal 3 | 133.84 J/K/mol and 125.85 J/K/mol and 124.17 J/K/mol
243.15 K, Crystal 3 | 135 J/K/mol and 129.32 J/K/mol and 126.8 J/K/mol
248.15 K, Crystal 3 | 136.37 J/K/mol and 130.9 J/K/mol and 128.8 J/K/mol
253.15 K, Crystal 3 | 130.69 J/K/mol and 135.32 J/K/mol and 132.16 J/K/mol
258.15 K, Crystal 3 | 131.32 J/K/mol and 134.05 J/K/mol and 134.16 J/K/mol
263.15 K, Crystal 3 | 133 J/K/mol and 134.05 J/K/mol and 136.37 J/K/mol
268.15 K, Crystal 3 | 134.16 J/K/mol and 135.84 J/K/mol and 137.52 J/K/mol
273.15 K, Crystal 3 | 134.58 J/K/mol and 137.42 J/K/mol and 138.78 J/K/mol
278.15 K, Crystal 3 | 136.79 J/K/mol and 139.1 J/K/mol and 140.47 J/K/mol
283.15 K, Crystal 3 | 139.63 J/K/mol and 140.68 J/K/mol and 142.67 J/K/mol
288.15 K, Crystal 3 | 142.04 J/K/mol and 143.83 J/K/mol
293.15 K, Crystal 3 | 143.62 J/K/mol and 144.46 J/K/mol and 145.83 J/K/mol
298.15 K, Crystal 3 | 145.62 J/K/mol and 146.46 J/K/mol and 148.25 J/K/mol
303.15 K, Crystal 3 | 147.51 J/K/mol and 148.46 J/K/mol and 151.61 J/K/mol
308.15 K, Crystal 3 | 148.88 J/K/mol and 150.03 J/K/mol and 153.82 J/K/mol
313.15 K, Crystal 3 | 150.67 J/K/mol and 151.82 J/K/mol and 154.56 J/K/mol
318.15 K, Crystal 3 | 151.51 J/K/mol and 154.35 J/K/mol and 155.5 J/K/mol
323.15 K, Crystal 3 | 152.66 J/K/mol and 156.87 J/K/mol and 158.97 J/K/mol
328.15 K, Crystal 3 | 154.98 J/K/mol and 159.5 J/K/mol and 164.54 J/K/mol
333.15 K, Crystal 3 | 157.6 J/K/mol and 162.34 J/K/mol and 168.33 J/K/mol
338.15 K, Crystal 3 | 160.02 J/K/mol and 165.49 J/K/mol and 171.9 J/K/mol
343.15 K, Crystal 3 | 163.07 J/K/mol and 168.33 J/K/mol and 176.74 J/K/mol
348.15 K, Crystal 3 | 186.94 J/K/mol and 175.58 J/K/mol and 198.92 J/K/mol
368.15 K, Crystal 1 | 297.97 J/K/mol and 303.43 J/K/mol and 287.35 J/K/mol
373.15 K, Crystal 1 | 299.96 J/K/mol and 302.7 J/K/mol and 289.98 J/K/mol
378.15 K, Crystal 1 | 306.17 J/K/mol and 309.95 J/K/mol and 295.76 J/K/mol
393.15 K, Liquid | 322.67 J/K/mol and 320.57 J/K/mol and 328.56 J/K/mol
398.15 K, Liquid | 327.41 J/K/mol and 323.41 J/K/mol and 339.71 J/K/mol
403.15 K, Liquid | 331.72 J/K/mol and 325.62 J/K/mol and 352.43 J/K/mol
408.15 K, Liquid | 327.83 J/K/mol and 335.19 J/K/mol
413.15 K, Liquid | 330.03 J/K/mol
